Experimental data as given in patent publication US7297794B2, “Phenoxy amine compounds and compositions for delivering active agents” (Emisphere Technologies, Inc., priority 2001, dated 2007).
Values joined by “and” are separate entries in the source; they are usually repeats but may differ in a detail not shown here. Equal values may be shown once. Where a name gives a salt, the structure may show the parent alone.

Tests used:
[1] = Insulin - Oral Delivery (glucose levels in serum after oral dosing of delivery agent compound with human zinc insulin); assay type: in vivo, Male Sprague-Dawley rats; settings: rat, delivery agent compound 200 mg/kg + insulin 0.5 mg/kg, volume dose 2 ml/kg
Description: Oral dosing (PO) compositions of delivery agent compound and human zinc insulin (minimum 26 IU/mg available from Calbiochem-Novabiochem Corp, La Jolla, Calif.) were prepared in deionized water. Typically, 500 mg of delivery agent compound was added to 1.5 ml of water. The solution was vortexed, then heated (about 37° C.) and sonicated. The pH was adjusted to about 7 to 8.5 with NaOH or HCl. Additional NaOH was added, if necessary, to achieve uniform solubility, and the pH re-adjusted to about 7 to 8.5. Water was then added to bring the total volume to about 2.4 ml and vortexed. About 1.25 mg insulin from an insulin stock solution ([…] made from 0.5409 g insulin and 18 ml deionized water, adjusting with HCl and NaOH to pH 8.15 and to obtain a clear solution using […]) was added to the solution and mixed by inverting. The solution may be used in the dosing protocol immediately, or alternatively, the solution may be placed into a 37° C. water bath for one hour prior to dosing. The final delivery agent compound dose, insulin dose and dose volume amounts are listed below in Table 1.
The typical dosing and sampling protocols were as follows. […] A dosing group of five animals was administered one of the dosing solutions. […] The dosing solution was administered by pressing the syringe plunger.

[2] = Oral BIBN4096BS Delivery (peak BIBN4096BS concentration after oral gavage with delivery agent compound); settings: rat, delivery agent compound 200 mg/kg + BIBN4096BS 25 mg/kg, 1 ml/kg
Description: Oral gavage (PO) dosing solutions of delivery agent compound and the calcitonin gene-related peptide antagonist, 1-piperidinecarboxamide, N-[2-[[5-amino-1-[[4-(4-pyridinyl)-1-piperazinyl)carbonyl]pentyl]amino]-1-[(3,5-dibromo-4-hydroxyphenyl)methyl]-2-oxoethyl]-4(1,4-dihydro-2-oxo-3(2H0-quinazolinyl)-. [R—(R*,S*)]- (BIBN4096BS) in water were prepared. […] The final dosing solutions were prepared by mixing the delivery agent compound with a BIBN4096BS stock solution and diluting to the desired volume (usually 1.0 mL). If necessary, the pH of the mixture was adjusted by the addition of aliquots of aqueous hydrochloric acid solution of an appropriate normality until the final pH of the dissolved delivery agent compound was below 7.0. The final compound amounts per dose were 25 mg/kg of BIBN4096BS and 200 mg/kg of delivery agent compound in a total volume of 1 mL/kg.
The typical dosing and sampling protocols were as follows. Male Sprague-Dawley rats weighing between 200-250 g were fasted for 24 hours and administered ketamine (44 mg/kg) and chlorpromazine (1.5 mg/kg) 15 minutes prior to dosing. A dosing group of five rats was administered one of the dosing solutions. […] Plasma BIBN4096BS concentrations were quantified by using a liquid chromatography/mass spectrometry/mass spectrometry assay method using UV detection. […]

Compound | Glucose Levels in Serum (% change from baseline ± SD) [1] | melting point [°C] | Mean Peak Serum ± sd ng/ml (BIBN4096BS) [2]
4-(4-(2-hydroxyphenoxy)butyl)morpholinium Citrate [Compound 7] | −11.7 ± 3.4% |  | 
Oc1ccccc1OCCCCCCCCN1CCOCC1 (as salt: salt) [Compound 1, 4-8-(2-hydroxyphenoxy) octylmorpholine] |  | 137 to 139 | 
CS(=O)(=O)O.Oc1ccccc1OCCCCCCCCN1CCOCC1 [1 (Mesylate), (4-(8-(2-hydroxyphenoxy)octyl)morpholine)mesylate] |  |  | 408 ± 340 ng/mL and 608 ± 552 ng/mL
Oc1ccccc1OCCCCCCCCN1CCOCC1 [Compound 1, 4-8-(2-hydroxyphenoxy) octylmorpholine] | −5.9 ± 4.6% and 0.3 ± 8.2% |  | 
OCCN(CCO)CCCCCCCCOc1ccccc1O [Compound 2, 8-(2-hydroxyphenoxy) octyldiethanolamine) citrate] | −10.8 ± 6.8% |  | 
Oc1ccccc1OCCCCCCCN1CCOCC1 [Compound 3, 7-(4-(2hydroxyphenoxy)heptylmorpholinium citrate] | −9.8 ± 4% |  | 
Oc1ccc(OCCCCCCN2CCOCC2)cc1 [Compound 4] | −2.3 ± 10.6% |  | 
NCCCCCCCCOc1ccc(O)cc1 [Compound 6, 8-(4-hydroxyphenoxy)octanamine] | 6.4 ± 17.1% |  | 
CC(=O)c1ccccc1OCCCCCCN(C)C.Cl [Compound 8, 6-(2-acetylphenoxy)-1-dimethylaminohexane hydrochloride] | −8.2 ± 9.5% | 138 to 141 | 
